Ends that are not written are not given here.
Experiments:
white adipocytes = settings: Rodrigue-Way et al. 2007; cited from earlier work
[1] = system: phosphoACC (pACC, phospho-AcetylCoA carboxylase); assay: liver ACC / phosphoACC protein expression after infusion; assay type: in vivo; settings: mice fed a very high fat diet, infusion for three weeks
Text: FIGS. 4A-4C are bar graphs showing regulation of PEPCK (4A) and ACC Protein Expression (both the phosphorylated (pACC) and unphosphorylated (ACC) forms (4B) in the presence and absence of the GLP-1(28-36) peptide, as well as the effect of the peptide on ratios of phosphorylated to unphosphorylated ACC (4C).
This is important since ACC is highly regulated in the liver and is the key enzyme responsible for the synthesis of malonyl CoA from AcetylCoA and is a precursor of fatty acid synthesis and a potent inhibitor of CPT1 (carnitine palmitoyl transferase 1), the rate limiting enzyme in the transport of fatty acids into the beta oxidation machinery of mitochondria. This means that GLP-1(28-36) is exerting an inhibition on fatty acid oxidation (beta oxidation). The increase in SCD1 expression in response to infusion of GLP-1(28-36)amide is consistent with an increase in ACC activity since SCD1 is believed to inhibit AMP kinase which is an inhibitor of ACC. The mechanism currently proposed for the prevention of weight gain by GLP-1(28-36)amide in mice fed a very high fat diet involves a dual effect of GLP-1(28-36)amide on adipose tissue to enhance lipolysis and fat burning and inhibit lipogenesis. The increased fatty acid cycling and hypertriglyceridemia enhances hepatic fatty acid oxidation with consequent coupled enhanced gluconeogenesis driven by the enhanced fat burning. […]

[2] = infusion in mice fed a very high fat diet: body weight, adipogenesis, food intake; assay type: in vivo; settings: for weight gain: mice on VHFD (60% fat), continuous infusion 6.5 nanomoles/24 hrs/KgBW via osmopumps, 3 weeks
Procedure: (§1) Mice were placed on VHFD or a LFD control diets at 6 weeks of age. Continuous infusion of GLP-1(28-36)amide, 6.5 nanomoles/24 hrs/KgBW via osmopumps was started at ten weeks of age and was continued for 3 weeks. Body weights were measured before and during these three weeks. Values are means and S.D.s of four mice in each group.
Glucagon-like peptide-1 (GLP-1) is an insulinotropic peptide that stimulates glucose-dependent insulin secretion (Kieffer and Habener, Endocr Rev. 20(6):876-913 (1999)). […] The neutral endopeptidase, NEP 24.11 is proposed to be responsible for the degradation of GLP-1, much as the Dpp4 had been thought of as a peptide degrading enzyme for GLP-1 (Plamboeck et al., Diabetologia. 48(9):1882-90 (2005)). The carboxyl-terminal sequence of GLP-1, […]amide, GLP-1(28-36)amide, is a major peptide product of the cleavage of GLP-1 by NEP 24.11 (Hupe-Sodmann et al., Regul Pept. 58(3):149-56 (1995)). Therefore GLP-1(28-36)amide was infused into mice both fed a normal chow diet (LFD) and a very high fat diet (VHFD) for three weeks.

PGC1α mRNA = assay: liver mRNA levels by QPCR in mice infused with GLP-1(28-36)amide; assay type: in vivo; settings: 28-36 infusion 3 weeks
Procedure: as §1
(§2) An examination of gene expression profiles in the livers of GLP-1(28-36)amide treated mice was performed. Measurements of mRNA levels by quantitative polymerase chain reaction (QPCR) in livers of mice given a very high fat diet (VHFD) or a normal low fat diet (LFD) for four weeks followed by subcutaneous osmopump infusions of either vehicle or GLP-1(28-36)amide for three additional weeks. Data in Table 2, below, show changes in mRNA levels in LFD and VHFD groups of mice comparing vehicle versus GLP-1(28-36)amide where vehicle is set at a value of 1.0. […] GLP-1(28-36)amide appears to regulate PEPCK, PPARg, CD36, SCD1, SREBP1c, FASN, and PPARa.

PPARα mRNA = assay: as above; assay type: in vivo; settings: 28-36 infusion 3 weeks; for PPARα mRNA/QPCR Fold Difference compared to LFD: normalized to LFD mice as 1.0, parentheses = down-regulation
Procedure: as §1, §2

PPARγ mRNA = assay: as above; assay type: in vivo; settings: 28-36 infusion 3 weeks; for PPARγ mRNA/QPCR Fold Difference compared to LFD: normalized to LFD mice as 1.0, parentheses = down-regulation
Procedure: as §1, §2

SREBP-1c mRNA = assay: as above; assay type: in vivo; settings: 28-36 infusion 3 weeks; for SREBP-1c mRNA/QPCR Fold Difference compared to LFD: normalized to LFD mice as 1.0, parentheses = down-regulation
Procedure: as §1, §2

CPT1 mRNA = assay: as above; assay type: in vivo; settings: 28-36 infusion 3 weeks; for CPT1 mRNA/QPCR Fold Difference compared to LFD: normalized to LFD mice as 1.0, parentheses = down-regulation
Procedure: as §1, §2

SCD-1 mRNA = assay: as above; assay type: in vivo
Procedure: as §1, §2

[3] = system: PEPCK (phosphopyruvate carboxykinase) mRNA; assay: as above; assay type: in vivo; settings: 28-36 infusion 3 weeks; for PEPCK mRNA/QPCR Fold Difference compared to LFD: normalized to LFD mice as 1.0, parentheses = down-regulation
Procedure: as §1, §2

FASN mRNA = assay: as above; assay type: in vivo; settings: 28-36 infusion 3 weeks
Procedure: as §1, §2

ACOX mRNA = assay: as above; assay type: in vivo; settings: 28-36 infusion 3 weeks; for ACOX mRNA/QPCR Fold Difference compared to LFD: normalized to LFD mice as 1.0, parentheses = down-regulation
Procedure: as §1, §2

CD36 mRNA = assay: as above; assay type: in vivo; settings: 28-36 infusion 3 weeks; for CD36 mRNA/QPCR Fold Difference compared to LFD: normalized to LFD mice as 1.0, parentheses = down-regulation
Procedure: as §1, §2

[4] = Ban et al. 2008; cited from earlier work
3T3-L1 adipocytes = assay: lipolysis (glycerol release) in 3T3-L1 adipocytes; assay type: cell-based; settings: 1-30 nM on a background of 10 nM isoproterenol, 60 min
Procedure: Preliminary studies on the effect of GLP-1(9-36) on lipolysis were also performed in isolated mouse hepatocytes and 3T3-L1 adipocytes. Glycerol release into the culture medium was used as a measure of active lipolysis, and isoproterenol serves as a known stimulator of lipolysis. In these experiments GLP-1(9-36)amide was added dose-wise (1-30 nM) on a background of 10 nM isoproterenol. Incubations were for 60 min.

[5] = system: hepatic glucose production (gluconeogenesis); settings: Elahi et al. 2008; cited from earlier work
isolated hepatocytes = assay: hepatic gluconeogenesis in isolated hepatocytes (preliminary studies); assay type: cell-based; settings: high (micromolar) concentrations
GLP-1 GPCR = GLP-1 GPCR (Homo sapiens, UniProt P43220); settings: (nM); cited from earlier work
Sequence of GLP-1 GPCR (P43220 24-463): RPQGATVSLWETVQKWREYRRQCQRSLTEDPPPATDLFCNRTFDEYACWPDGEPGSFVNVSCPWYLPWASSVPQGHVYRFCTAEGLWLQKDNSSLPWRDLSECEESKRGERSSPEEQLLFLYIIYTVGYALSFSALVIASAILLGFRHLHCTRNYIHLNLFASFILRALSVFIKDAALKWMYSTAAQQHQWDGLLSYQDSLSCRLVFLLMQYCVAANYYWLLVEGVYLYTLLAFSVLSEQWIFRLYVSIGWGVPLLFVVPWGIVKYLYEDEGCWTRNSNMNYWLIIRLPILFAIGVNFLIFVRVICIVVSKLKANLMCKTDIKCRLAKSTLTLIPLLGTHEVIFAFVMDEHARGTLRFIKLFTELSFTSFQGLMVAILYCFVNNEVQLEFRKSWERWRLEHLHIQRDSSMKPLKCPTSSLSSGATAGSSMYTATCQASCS

[6] = high fat fed mice, infusion for three weeks
[7] = LFD mice, normalized to LFD mice as 1.0, parentheses = down-regulation
[8] = LFD mice, vehicle set at 1.0, parentheses = down-regulation
[9] = VHFD mice, VHFD vehicle set at 1.0, parentheses = down-regulation

In the case of Cc1[nH]c2ccccc2c1C[C@@H](NC(=O)[C@@H](N)Cc1cnc[nH]1)C(=O)N[C@@H](C)C(=O)N[C@@H](Cc1c[nH]c2ccccc12)C(=O)N[C@H](Cc1ccccc1)C(=O)N[C@@H](CCCCN)C(N)=O [hexarelin, H-W(Me)-A-W-F-Kamide], the “mitochondrial biogenesis and fat burning phenotype” value (white adipocytes) is given as “promote mitochondrial biogenesis and a fat burning phenotype”.

With FIAWLVKGR-NH2 [28-36] the “liver phosphoACC (pACC)” value [1] was “decrease”, the adipogenesis [2, 6] was “completely prevented” and the food intake [2, 6] was “without observable differences”. The weight gain ([2]; listed as GLP-1(28-36)) was “attenuates weight gain”, the weight gain ([2]; listed as GLP-1(28-36)amide) was “completely prevented” and the “PGC1α mRNA/QPCR Fold Difference compared to LFD” value (PGC1α mRNA; [7]) was 1.35 fold. For the same compound, the “PGC1α mRNA/QPCR Fold Difference compared to PEPTIDE (28-36)” value (PGC1α mRNA; [8]) was 1.4 fold, the “PGC1α mRNA/QPCR Fold Difference compared to PEPTIDE (28-36)” value (PGC1α mRNA; [9]) was 1.2 fold and the “PPARα mRNA/QPCR Fold Difference compared to LFD” value (PPARα mRNA; LFD mice) was 1.2 fold. The “PPARα mRNA/QPCR Fold Difference compared to PEPTIDE (28-36)” value (PPARα mRNA; [8]) was 1.2 fold, the “PPARα mRNA/QPCR Fold Difference compared to PEPTIDE (28-36)” value (PPARα mRNA; [9]) was 1.35 fold and the “PPARα mRNA/QPCR Fold Difference compared to LFD” value (PPARα mRNA; VHFD mice) was 1.9 fold. For the same compound, the “PPARγ mRNA/QPCR Fold Difference compared to LFD” value (PPARγ mRNA; LFD mice) was 1.54 fold, the “PPARγ mRNA/QPCR Fold Difference compared to PEPTIDE (28-36)” value (PPARγ mRNA; [8]) was 1.54 fold and the “PPARγ mRNA/QPCR Fold Difference compared to PEPTIDE (28-36)” value (PPARγ mRNA; [9]) was 1.4 fold. The “PPARγ mRNA/QPCR Fold Difference compared to LFD” value (PPARγ mRNA; VHFD mice) was 2.2 fold, the “SREBP-1c mRNA/QPCR Fold Difference compared to LFD” value (SREBP-1c mRNA; LFD mice) was 1 fold and the “SREBP-1c mRNA/QPCR Fold Difference compared to PEPTIDE (28-36)” value (SREBP-1c mRNA; [8]) was 1.1 fold. The “SREBP-1c mRNA/QPCR Fold Difference compared to PEPTIDE (28-36)” value (SREBP-1c mRNA; [9]) was 1.3 fold, the “SREBP-1c mRNA/QPCR Fold Difference compared to LFD” value (SREBP-1c mRNA; VHFD mice) was 1 fold and the “CPT1 mRNA/QPCR Fold Difference compared to LFD” value (CPT1 mRNA; LFD mice) was 1.2 fold. The “CPT1 mRNA/QPCR Fold Difference compared to PEPTIDE (28-36)” value (CPT1 mRNA; [8]) was 1.21 fold, the “CPT1 mRNA/QPCR Fold Difference compared to PEPTIDE (28-36)” value (CPT1 mRNA; [9]) was 1.02 fold and the “CPT1 mRNA/QPCR Fold Difference compared to LFD” value (CPT1 mRNA; VHFD mice) was 1.74 fold. For the same compound, the SCD1 expression (SCD-1 mRNA; in response to infusion of GLP-1(28-36)amide) was “increase”, the “SCD-1 mRNA/QPCR Fold Difference compared to PEPTIDE (28-36)” value (SCD-1 mRNA; liver, VHFD mice, 28-36 infusion 3 weeks, VHFD vehicle set at 1.0, parentheses = down-regulation) was 3.05 fold and the “PEPCK mRNA/QPCR Fold Difference compared to LFD” value ([3]; LFD mice) was 1.6 fold. The “PEPCK mRNA/QPCR Fold Difference compared to PEPTIDE (28-36)” value [3, 8] was 1.6 fold, the “PEPCK mRNA/QPCR Fold Difference compared to PEPTIDE (28-36)” value [3, 9] was 1.5 fold and the “PEPCK mRNA/QPCR Fold Difference compared to LFD” value ([3]; VHFD mice) was 1.6 fold. The “FASN mRNA/QPCR Fold Difference compared to LFD” value (FASN mRNA; [7]) was 1 fold, the “FASN mRNA/QPCR Fold Difference compared to PEPTIDE (28-36)” value (FASN mRNA; [8]) was 1 fold and the “FASN mRNA/QPCR Fold Difference compared to PEPTIDE (28-36)” value (FASN mRNA; [9]) was 1.2 fold. The “ACOX mRNA/QPCR Fold Difference compared to LFD” value (ACOX mRNA; LFD mice) was 1.4 fold, the “ACOX mRNA/QPCR Fold Difference compared to PEPTIDE (28-36)” value (ACOX mRNA; [8]) was 1.4 fold and the “ACOX mRNA/QPCR Fold Difference compared to PEPTIDE (28-36)” value (ACOX mRNA; [9]) was 1.04 fold. The “ACOX mRNA/QPCR Fold Difference compared to LFD” value (ACOX mRNA; VHFD mice) was 1.2 fold, the “CD36 mRNA/QPCR Fold Difference compared to LFD” value (CD36 mRNA; LFD mice) was 1.25 fold and the “CD36 mRNA/QPCR Fold Difference compared to PEPTIDE (28-36)” value (CD36 mRNA; [8]) was 1.25 fold. For the same compound, the “CD36 mRNA/QPCR Fold Difference compared to PEPTIDE (28-36)” value (CD36 mRNA; [9]) was 1.7 fold and the “CD36 mRNA/QPCR Fold Difference compared to LFD” value (CD36 mRNA; VHFD mice) was 1.7 fold.

For GLP-1(9-36)amide, the cardioprotective actions [4] is listed as “exerts cardioprotective actions”, the “lipolysis (glycerol release into the culture medium)” value (3T3-L1 adipocytes) is listed as “stimulates lipolysis in 3T3-L1 adipocytes in a dose dependent manner” and the “hepatic glucose production (gluconeogenesis)” value [5] is listed as “inhibits”. The “actions on hepatic gluconeogenesis” value (isolated hepatocytes) was “only weak actions”.

For exendin-4, the “binding affinity to the GLP-1 GPCR” value (GLP-1 GPCR) is listed as “high affinity”.
